Results taken from patent US5296496A, “2-saccharinylmethyl phosphates, phosphonates and phosphinates useful as proteolytic enzyme inhibitors and compositions and method of use thereof” (Sterling Winthrop Inc., priority 1992, dated 1994).

Target: T1, human leukocyte elastase (HLE) (Homo sapiens, UniProt P08246)
T1 sequence (P08246 30-267): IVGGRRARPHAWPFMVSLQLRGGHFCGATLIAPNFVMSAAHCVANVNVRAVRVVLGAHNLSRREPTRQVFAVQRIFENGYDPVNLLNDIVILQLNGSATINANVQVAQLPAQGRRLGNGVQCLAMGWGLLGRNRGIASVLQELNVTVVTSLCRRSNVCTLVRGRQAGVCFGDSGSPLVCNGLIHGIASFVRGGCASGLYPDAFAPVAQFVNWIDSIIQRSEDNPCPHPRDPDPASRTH
Assay: Inhibition constant Ki* of human leukocyte elastase (HLE), calculated as koff/kon
Type: biochemical
Conditions: unit inferred
Procedure: Thus, instead of measuring a Ki, a Ki * is calculated which is defined as the ratio of the koff /kon, the rate of reactivation of the enzyme to the rate of inactivation of the enzyme. The values of koff and kon are measured and Ki * is then calculated.
The rate of inactivation, kon, of enzymatic activity was determined for the compounds tested by measuring the enzyme activity of an aliquot of the respective enzyme as a function of time after addition of the test compound. […] The rate of inactivation is then equal to [formula] where [I] is the concentration of the inhibiting compound.
The reactivation constant, koff, is similarly determined, and the inhibition constant, Ki *, is then calculated as

**Q.** How did the Ki turn out when `CCOP(=O)(OCC)OCN1C(=O)c2c(C(C)C)cc(OC)cc2S1(=O)=O` [Example 13] was run?
**A.** Its Ki is 0.035 nM.
